From PubChem BioAssay AID330 (DTP/NCI, 2004)
Values joined by “and” are separate entries in the source; they are usually repeats but may differ in a detail not shown here. Identical values can stand only once. Toxic doses and inconclusive results are not listed.

System: P388 leukemia ip, CD2F1 mice, survival T/C
Test: NCI In Vivo Anticancer Drug Screen. Data for tumor model P388 Leukemia (intraperitoneal) in CD2F1 (CDF1) mice
Conditions: endpoint: median survival time, higher = longer survival
Summary of the method: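 Mice carrying the transplanted tumor received test compound or vehicle. Survival was recorded in each group, and the value is the treated-group measurement divided by that of the vehicle-treated control group.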

[1] = dose: 60.0 mg/kg/injection, schedule: Q01DX005 (ip), vehicle: saline with Tween-80
[2] = dose: 120.0 mg/kg/injection, schedule: Q01DX005 (ip), vehicle: saline with Tween-80
[3] = dose: 240.0 mg/kg/injection, schedule: Q01DX005 (ip), vehicle: saline with Tween-80
[4] = dose: 50.0 mg/kg/injection, schedule: Q01DX009 (ip), vehicle: saline
[5] = dose: 100.0 mg/kg/injection, schedule: Q01DX009 (ip), vehicle: saline
[6] = dose: 100.0 mg/kg/injection, schedule: Q04DX003 (ip), vehicle: saline with Tween-80
[7] = dose: 200.0 mg/kg/injection, schedule: Q04DX003 (ip), vehicle: saline with Tween-80

For CCOc1c(N=Nc2ccc(Cl)cc2)c(-c2ccccc2)nn1C(N)=S, the T/C (dose: 50.0 mg/kg/injection, schedule: Q01DX005 (ip), vehicle: saline + Tween-80 + alcohol) was 108 % of control, the T/C (dose: 100.0 mg/kg/injection, schedule: Q01DX005 (ip), vehicle: saline + Tween-80 + alcohol) was 94 % of control and the T/C (dose: 200.0 mg/kg/injection, schedule: Q01DX005 (ip), vehicle: saline + Tween-80 + alcohol) was 99 % of control.
With Cc1ccc(NC(=O)N(CCCl)N=O)cc1NC(=O)N(CCCl)N=O the T/C (dose: 0.1 mg/kg/injection, schedule: Q01DX009 (ip), vehicle: other) was 120 % of control, the T/C (dose: 0.1 mg/kg/injection, schedule: Q01DX009 (ip), vehicle: saline + alcohol) was 116 % of control and the T/C (dose: 0.25 mg/kg/injection, schedule: Q04DX003 (ip), vehicle: other) was 113 % of control. For the same compound, the T/C (dose: 0.5 mg/kg/injection, schedule: Q04DX003 (ip), vehicle: other) was 118 % of control, the T/C (dose: 0.75 mg/kg/injection, schedule: Q01DX009 (ip), vehicle: other) was 161 % of control and the T/C (dose: 1.0 mg/kg/injection, schedule: Q01DX009 (ip), vehicle: other) was 159 % of control. For the same compound, the T/C (dose: 1.0 mg/kg/injection, schedule: Q04DX003 (ip), vehicle: other) was 113 % of control, the T/C (dose: 1.32 mg/kg/injection, schedule: Q01DX009 (ip), vehicle: saline with Tween-80) was 154 % of control and the T/C (dose: 1.5 mg/kg/injection, schedule: Q01DX009 (ip), vehicle: other) was 175 % of control. The T/C (dose: 2.0 mg/kg/injection, schedule: Q01DX009 (ip), vehicle: saline with Tween-80) was 181 % of control, the T/C (dose: 2.0 mg/kg/injection, schedule: Q04DX003 (ip), vehicle: other) was 154 % of control and the T/C (dose: 3.0 mg/kg/injection, schedule: Q01DX009 (ip), vehicle: other) was 221 % of control. The T/C (dose: 3.0 mg/kg/injection, schedule: Q01DX009 (ip), vehicle: saline with Tween-80) was 155 % of control and 209 % of control, the T/C (dose: 3.13 mg/kg/injection, schedule: Q01DX009 (ip), vehicle: other) was 177 % of control and the T/C (dose: 4.5 mg/kg/injection, schedule: Q01DX009 (ip), vehicle: saline with Tween-80) was 245 % of control. For the same compound, the T/C (dose: 6.25 mg/kg/injection, schedule: Q01DX009 (ip), vehicle: other) was 209 % of control and the T/C (dose: 12.5 mg/kg/injection, schedule: Q01DX009 (ip), vehicle: other) was 222 % of control.
With Cc1nc2c(cc1C#N)C(NCCO)Oc1ccccc1-2 (centres undefined) the T/C [1] was 97 % of control, the T/C [2] was 97 % of control and the T/C [3] was 99 % of control.
With COc1ccc(NP2(=O)N(Cc3ccc(Cl)cc3)CCCN2Cc2ccc(Cl)cc2)cc1 the T/C (dose: 50.0 mg/kg/injection, schedule: Q01DX005 (ip), vehicle: Klucel (hydroxypropylcellulose) (HPC)) was 100 % of control and the T/C (dose: 100.0 mg/kg/injection, schedule: Q01DX005 (ip), vehicle: Klucel (hydroxypropylcellulose) (HPC)) was 88 % of control.
For CC1C(c2ccccc2)=NN(C)c2ccccc21 (centres undefined), the T/C [1] was 97 % of control, the T/C [2] was 102 % of control and the T/C [3] was 90 % of control.
In the case of C=CCC(NC(C)=O)C(=O)O (centres undefined), the T/C (dose: 25.0 mg/kg/injection, schedule: Q01DX009 (ip), vehicle: saline) is reported as 88 % of control, the T/C [4] is reported as 101 % of control and the T/C [5] is reported as 93 % of control.
With Clc1ccc(N=NN2CN3CN(C2)CN(N=Nc2ccc(Cl)cc2)C3)cc1 the T/C (dose: 100.0 mg/kg/injection, schedule: Q04DX002 (ip), vehicle: Klucel (hydroxypropylcellulose) (HPC)) was 94 % of control, the T/C (dose: 200.0 mg/kg/injection, schedule: Q04DX002 (ip), vehicle: Klucel (hydroxypropylcellulose) (HPC)) was 99 % of control and the T/C (dose: 400.0 mg/kg/injection, schedule: Q04DX002 (ip), vehicle: Klucel (hydroxypropylcellulose) (HPC)) was 91 % of control.
In the case of Clc1ccc(CN2COc3c(cc(Cl)c4cccnc34)C2)cc1, the T/C (dose: 100.0 mg/kg/injection, schedule: Q04DX003 (ip), vehicle: Klucel (hydroxypropylcellulose) (HPC)) is reported as 88 % of control, the T/C (dose: 200.0 mg/kg/injection, schedule: Q04DX003 (ip), vehicle: Klucel (hydroxypropylcellulose) (HPC)) is reported as 91 % of control and the T/C (dose: 400.0 mg/kg/injection, schedule: Q04DX003 (ip), vehicle: Klucel (hydroxypropylcellulose) (HPC)) is reported as 106 % of control.
For CCC1(c2ccccc2)C(=O)NC(=O)N(CN2CCOCC2)C1=O (centres undefined), the T/C (dose: 60.0 mg/kg/injection, schedule: Q01DX005 (ip), vehicle: Klucel (hydroxypropylcellulose) (HPC)) was 100 % of control, the T/C (dose: 120.0 mg/kg/injection, schedule: Q01DX005 (ip), vehicle: Klucel (hydroxypropylcellulose) (HPC)) was 100 % of control and the T/C (dose: 240.0 mg/kg/injection, schedule: Q01DX005 (ip), vehicle: Klucel (hydroxypropylcellulose) (HPC)) was 98 % of control.
With CC(=O)[O][Hg][c]1c(N)c(Cl)cc(C)c1F the T/C (dose: 3.12 mg/kg/injection, schedule: Q01DX009 (ip), vehicle: Klucel (hydroxypropylcellulose) (HPC)) was 91 % of control and the T/C (dose: 6.25 mg/kg/injection, schedule: Q01DX009 (ip), vehicle: Klucel (hydroxypropylcellulose) (HPC)) was 86 % of control.
In the case of Brc1ccc2c3c(ccc2c1)OCCOCCOCCOCCOCCOc1ccc2cc(Br)ccc2c1-3, the T/C (dose: 100.0 mg/kg/injection, schedule: Q01DX001 (ip), vehicle: saline with Tween-80) is reported as 104 % of control, the T/C (dose: 200.0 mg/kg/injection, schedule: Q01DX001 (ip), vehicle: saline with Tween-80) is reported as 107 % of control and the T/C (dose: 400.0 mg/kg/injection, schedule: Q01DX001 (ip), vehicle: saline with Tween-80) is reported as 104 % of control.
For CC(C)(C)C(O)c1cccnc1 (centres undefined), the T/C [6] was 110 % of control and the T/C [7] was 101 % of control.
In the case of NCCC(=O)NC(Cc1cnc[nH]1)C(=O)O (centres undefined), the T/C [4] is reported as 104 % of control, the T/C [5] is reported as 104 % of control and the T/C (dose: 200.0 mg/kg/injection, schedule: Q01DX009 (ip), vehicle: saline) is reported as 99 % of control. The T/C (dose: 400.0 mg/kg/injection, schedule: Q01DX009 (ip), vehicle: saline) was 98 % of control.
COc1onc(C)c1CC(=O)O was tested, and the T/C (dose: 18.75 mg/kg/injection, schedule: Q01DX005 (ip), vehicle: saline with Tween-80) was 97 % of control, the T/C (dose: 37.5 mg/kg/injection, schedule: Q01DX005 (ip), vehicle: saline with Tween-80) was 101 % of control and the T/C (dose: 75.0 mg/kg/injection, schedule: Q01DX005 (ip), vehicle: saline with Tween-80) was 95 % of control. The T/C (dose: 150.0 mg/kg/injection, schedule: Q01DX005 (ip), vehicle: saline with Tween-80) was 99 % of control.
For NC(=S)N/N=C/c1cc(Cl)sc1Cl, the T/C (dose: 50.0 mg/kg/injection, schedule: Q01DX005 (ip), vehicle: saline with Tween-80) was 102 % of control, the T/C (dose: 100.0 mg/kg/injection, schedule: Q01DX005 (ip), vehicle: saline with Tween-80) was 98 % of control and the T/C (dose: 200.0 mg/kg/injection, schedule: Q01DX005 (ip), vehicle: saline with Tween-80) was 96 % of control.
FC(F)Oc1ccccc1 was tested, and the T/C (dose: 50.0 mg/kg/injection, schedule: Q01DX009 (ip), vehicle: acetone) was 105 % of control, the T/C (dose: 50.0 mg/kg/injection, schedule: Q01DX009 (ip), vehicle: saline with Tween-80) was 100 % of control and 101 % of control and the T/C (dose: 100.0 mg/kg/injection, schedule: Q01DX009 (ip), vehicle: acetone) was 113 % of control. For the same compound, the T/C (dose: 100.0 mg/kg/injection, schedule: Q01DX009 (ip), vehicle: saline with Tween-80) was 100 % of control and 110 % of control, the T/C (dose: 200.0 mg/kg/injection, schedule: Q01DX009 (ip), vehicle: acetone) was 110 % of control and the T/C (dose: 200.0 mg/kg/injection, schedule: Q01DX009 (ip), vehicle: saline with Tween-80) was 114 % of control.
For CCCCOP(O)(=S)OCCCC.[Er], the T/C (dose: 100.0 mg/kg/injection, schedule: Q04DX002 (ip), vehicle: saline with Tween-80) was 96 % of control, the T/C (dose: 200.0 mg/kg/injection, schedule: Q04DX002 (ip), vehicle: saline with Tween-80) was 101 % of control and the T/C (dose: 400.0 mg/kg/injection, schedule: Q04DX002 (ip), vehicle: saline with Tween-80) was 95 % of control.
For CSC(=C[N+](=O)[O-])SC, the T/C (dose: 3.13 mg/kg/injection, schedule: Q01DX009 (ip), vehicle: water) was 100 % of control, the T/C (dose: 6.25 mg/kg/injection, schedule: Q01DX009 (ip), vehicle: water) was 105 % of control and the T/C (dose: 12.5 mg/kg/injection, schedule: Q01DX009 (ip), vehicle: water) was 96 % of control. The T/C (dose: 25.0 mg/kg/injection, schedule: Q01DX009 (ip), vehicle: water) was 104 % of control.
With COCCOCOC(C)(C)CCCCl the T/C [1] was 106 % of control, the T/C [2] was 101 % of control and the T/C [3] was 100 % of control.
CCCCNC(=O)Nc1ccc(C(=O)OCCCC)cc1 was tested, and the T/C [6] was 100 % of control and the T/C [7] was 90 % of control.
In the case of C/C(=N\NC(=S)N(C)C1CCCCC1)c1ccc2ccccc2n1, the T/C (dose: 6.25 mg/kg/injection, schedule: Q01DX005 (ip), vehicle: saline with Tween-80) is reported as 103 % of control and 114 % of control, the T/C (dose: 12.5 mg/kg/injection, schedule: Q01DX005 (ip), vehicle: saline with Tween-80) is reported as 111 % of control and 115 % of control and the T/C (dose: 25.0 mg/kg/injection, schedule: Q01DX005 (ip), vehicle: saline with Tween-80) is reported as 150 % of control.
